Experimental data published in patent US9791444B2, “Method for differentially quantifying naturally processed HLA-restricted peptides for cancer, autoimmune and infectious diseases immunotherapy development” (IMMATICS BIOTECHNOLOGIES GMBH, priority 2010, dated 2017).

Tested on: CD8+ T cells from HLA-A*24 healthy donors
Experiment: In vitro immunogenicity: in vitro priming of CD8+ T cells with pMHC/anti-CD28 coated beads (aAPC), A*2402 multimer staining
Assay type: cell-based, human
Conditions: HLA-A*2402 restricted, three stimulation cycles; for Positive wells/wells tested [%]: at least 24 wells evaluable for each peptide, positive well = at least 1% specific multimer+ among CD8+ and at least 10x median of negative controls; for Positive donors/donors tested [%]: at least two donors evaluable for each peptide
Description: To get information regarding the immunogenicity of the TUMAPs of the present invention, we performed investigations using a well established in vitro stimulation platform already described by (Walter, S, Herrgen, L, Schoor, O, Jung, G, Wernet, D, Buhring, H J, Rammensee, H G, and Stevanovic, S; 2003, Cutting edge: predetermined avidity of human CD8 T cells expanded on calibrated MHC/anti-CD28-coated microspheres, J. Immunol., 171, 4974-4978).
In order to perform in vitro stimulations by artificial antigen presenting cells (aAPC) loaded with peptide-MHC complex (pMHC) and anti-CD28 antibody, we first isolated CD8 T cells from fresh HLA-A*24 leukapheresis products of healthy donors obtained from the Blood Bank Tuebingen.
CD8 T cells were either directly enriched from the leukapheresis product or PBMCs (peripheral blood mononuclear cells) were isolated first by using standard gradient separation medium (PAA, Cölbe, Germany). Isolated CD8 lymphocytes or PBMCs were incubated until use in T-cell medium (TCM) consisting of RPMI-Glutamax (Invitrogen, Karlsruhe, Germany) supplemented with 10% heat inactivated human AB serum (PAN-Biotech, Aidenbach, Germany), 100 U/ml Penicillin/100 μg/ml Streptomycin (Cambrex, Cologne, Germany), 1 mM sodium pyruvate (CC Pro, Oberdorla, Germany), 20 μg/ml Gentamycin (Cambrex). 2.5 ng/ml IL-7 (PromoCell, Heidelberg, Germany) and 10 U/ml IL-2 (Novartis Pharma, Nürnberg, Germany) were also added to the TCM at this step. Isolation of CD8+ lymphocytes was performed by positive selection using CD8 MicroBeads (Miltenyi Biotec, Bergisch-Gladbach, Germany).
Generation of pMHC/anti-CD28 coated beads, T-cell stimulations and readout was performed as described before (Walter et al. 4974-78) with minor modifications. Briefly, biotinylated peptide-loaded recombinant HLA-A*2402 molecules lacking the transmembrane domain and biotinylated at the carboxy terminus of the heavy chain were produced. The purified costimulatory mouse IgG2a anti human CD28 Ab 9.3 (Jung, Ledbetter, and Muller-Eberhard 4611-15) was chemically biotinylated using Sulfo-N-hydroxysuccinimidobiotin as recommended by the manufacturer (Perbio, Bonn, Germany).
800.000 beads/200 μl were coated in 96-well plates in the presence of 600 ng biotin anti-CD28 plus 200 ng relevant biotin-pMHC (high density beads). Stimulations were initiated in 96-well plates by co-incubating 1×10^6 CD8+ T cells with 2×10^5 washed coated beads in 200 μl TCM supplemented with 5 ng/ml IL-12 (PromoCell) for 3-4 days at 37° C. Half of the medium was then exchanged by fresh TCM supplemented with 80 U/ml IL-2 and incubating was continued for 3-4 days at 37° C. This stimulation cycle was performed for a total of three times. Finally, multimeric analyses were performed by staining the cells with Live/dead-Aqua dye (Invitrogen, Karlsruhe, Germany), CD8-FITC antibody clone SK1 (BD, Heidelberg, Germany) and PE- or APC-coupled A*2402 MHC multimers. For analysis, a BD LSRII SORP cytometer equipped with appropriate lasers and filters was used. Peptide specific cells were calculated as percentage of total CD8+ cells. Evaluation of multimeric analysis was done using the FlowJo software (Tree Star, Oreg., USA).

Sequence	Positive wells/wells tested [%]	Positive donors/donors tested [%]
AYAIIKEEL (listed as Homo sapiens) [ATAD2-001]	4	50
AYLVYTDRL (listed as Homo sapiens) [PPAP2C-001]	54	100
FYISPVNKL (listed as Homo sapiens) [AVL9-001]	50	100
HYKPTPLYF (listed as Homo sapiens) [SMC4-001]	9	75
IYNGKLFDLL (listed as Homo sapiens) [KIF2C-001]	2	13
KYNDTFWKEF (listed as Homo sapiens) [HSP90B1-001]	4	50
LYQILQGIVF (listed as Homo sapiens) [CDC2-001, gastric cancer associated TUMAP encoded by CDK1]	28	88
NYEETFPHI (listed as Homo sapiens) [MUC6-001]	21	50
NYLLYVSNF [MMP11-001]	11	33
NYLLYVSNF [MST1R-001] (listed as Homo sapiens)	14	50
NYLPFIMEL (listed as Homo sapiens) [UCHL5-001]	14	75
QYASRFVQL (listed as Homo sapiens) [PLK4-001]	5	60
RFLSGIINF (listed as Homo sapiens) [NUF2-002]	4	50
RYLWATVTI (listed as Homo sapiens) [ASPM-001]	3	17
SYIDVLPEF (listed as Homo sapiens) [MET-006]	22	63
SYNPLWLRI (listed as Homo sapiens) [ASPM-002, gastric cancer associated TUMAP encoded by ASPM]	31	63
TYGNLLDYL (listed as Homo sapiens) [ABL1-001]	13	50
VFDTAIAHLF (listed as Homo sapiens) [SIAH2-001]	4	50
VFIFKGNQF (listed as Homo sapiens) [MMP3-001]	1	13
VWSDVTPLTF [PROM1-001]	26	83
VYGIRLEHF (listed as Homo sapiens) [NUF2-001]	25	100
VYIEKNDKL (listed as Homo sapiens) [ERBB3-001]	15	83
VYKVVGNLL (listed as Homo sapiens) [IQGAP3-001]	24	100
VYTTSYQQI (listed as Homo sapiens) [NFYB-001]	7	50
YYNAAGFNKL (listed as Homo sapiens) [UQCRB-001]	38	100
